# According to patent publication US11365199B2, “Pyrazole compounds as modulators of FSHR and uses thereof” (Merck Patent GmbH, priority 2013, dated 2022):
# Counter-ions that a name gives are not always drawn.
# Molecular target: T1, FSHR (Homo sapiens, UniProt P23945)
# T1 construct: expressed in transfected cells; host or cells: CHO (Cho-FSHR-LUC-1-1-43)
# T1 sequence (P23945 18-695): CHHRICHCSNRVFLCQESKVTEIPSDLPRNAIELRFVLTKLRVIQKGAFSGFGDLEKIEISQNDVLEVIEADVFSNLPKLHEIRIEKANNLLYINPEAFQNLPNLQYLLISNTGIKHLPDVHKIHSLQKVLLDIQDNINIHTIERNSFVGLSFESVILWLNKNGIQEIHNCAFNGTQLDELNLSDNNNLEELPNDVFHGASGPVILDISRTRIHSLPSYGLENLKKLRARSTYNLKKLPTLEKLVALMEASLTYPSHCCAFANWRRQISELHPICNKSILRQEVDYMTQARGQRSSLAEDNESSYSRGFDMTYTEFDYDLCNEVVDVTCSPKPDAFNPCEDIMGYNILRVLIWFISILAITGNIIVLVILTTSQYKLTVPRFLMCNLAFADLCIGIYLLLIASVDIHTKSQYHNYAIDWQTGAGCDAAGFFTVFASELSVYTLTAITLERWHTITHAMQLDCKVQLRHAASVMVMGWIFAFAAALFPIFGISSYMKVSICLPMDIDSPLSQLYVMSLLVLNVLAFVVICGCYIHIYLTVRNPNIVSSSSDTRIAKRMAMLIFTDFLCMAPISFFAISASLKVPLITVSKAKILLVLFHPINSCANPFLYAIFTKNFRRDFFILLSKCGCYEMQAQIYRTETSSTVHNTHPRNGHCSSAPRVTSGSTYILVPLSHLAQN
# Experiment: EC50 of cyclic AMP production in CHO FSHR cells + EC20 FSH (Assay A)
# Assay type: cell-based
# Details: not given
# Experimental: EC50 of Cyclic AMP Production in CHO FSHR Cells+EC20 FSH (Assay A)
# 2500 Cho-FSHR-LUC-1-1-43 cells were plated per well in 5 μl of phenol red free DMEM/F12+1% FBS. Cells were plated in 384 well, solid white low volume plates (Greiner 784075) by Multidrop. Cells were assayed by adding 100 μl of 2×EC20 FSH/IBMX in DMEM/F12+0.1% BSA) by Multidrop to 2 μl of test compound stamped in 384 well plates (compounds are diluted 1:50). The final FSH concentration was […], and the final IBMX concentration was 200 μM. The compound plate map was as follows: Column 1: 2 μl of DMSO; Column 2: 2 μl of DMSO; Columns 3-12 and 13-24: 2 μl of test compound, diluted 1:4 in 100% DMSO, or 2 μl of FSH, diluted 1:4 in DMEM/F12+0.1% BSA. The starting concentration for FSH was 50 nM (final concentration was 0.5 nM). Furthermore, Column 23 contained 2 μl of EC100 FSH reference (100×) (diluted in DMEM/F12+0.1% BSA) at a final concentration of 0.5 nM, and Column 24 contained 2 μl of 1 mM AS707664/2 reference compound 2. 5 μl of compound+EC20 FSH mixture were transferred to cell plates (1:2 dilution into 5 μl of cell media) The plates were incubated at 37° C. for 1 h. 10 μl of mixed HTRF (CisBio #62AM4PEC) reagents were added per well and incubated at room temperature for 1 h. The plates were read on Envision using the cAMP HTRF—low volume 384 well protocol. The readout was the calculated fluorescence ratio (665 nm/620 nm). Values given in percent (%) indicate the percental effect (response) at a certain concentration of agonist relative to the maximum response of the FSH standard.
row,SMILES,EC50
1,COCC(C)(C)N(C)C(=O)c1nn(-c2ccsc2)c2c1COc1cc(OC)c(C=C(C)C)cc1-2 [Compound 31],< 0.1 µM

# Same assay, conditions: CHO FSHR cells + EC20 FSH, cAMP HTRF; read-out: Assay A: EC50 of cyclic AMP production
row,EC50,SMILES
1,> 5 µM,"COc1cc2c(cc1C=C(C)C)-c1c(c(C(=O)NCCCNC(C)=O)nn1-c1ccsc1)CO2 [Compound 8, 7-Methoxy-8-(2-methyl-propenyl)-1-thiophen-3-yl-1,4-dihydro-chromeno[4,3-c]pyrazole-3-carboxylic acid (3-acetylamino-propyl)-amide]"
2,1 to 5 µM,"COc1cc2c(cc1C=C(C)C)-c1c(c(C(=O)NCCCc3nnn[nH]3)nn1-c1ccsc1)CO2 [Compound 11, 7-Methoxy-8-(2-methyl-propenyl)-1-thiophen-3-yl-1,4-dihydro-chromeno[4,3-c]pyrazole-3-carboxylic acid [3-(1H-tetrazol-5-yl)-propyl]-amide; trifluoro-acetic acid salt]"
3,1 to 5 µM,"CCOC(=O)C1CCN(C(=O)c2nn(-c3ccsc3)c3c2COc2cc(OC)c(C=C(C)C)cc2-3)CC1 [Compound 14, 1-{7-Methoxy-8-(2-methyl-propenyl)-1-thiophen-3-yl-1,4-dihydro-chromeno[4,3-c]pyrazole-3-carbonyl]-piperidine-4-carboxylic acid ethyl ester]"
4,> 5 µM,"COc1cc2c(cc1C=C(C)C)-c1c(c(C(=O)NC3CCCC(C(=O)OC(C)(C)C)C3)nn1-c1ccsc1)CO2 (centres unmarked) [Compound 15, 3-{[7-Methoxy-8-(2-methyl-propenyl)-1-thiophen-3-yl-1,4-dihydro-chromeno[4,3-c]pyrazole-3-carbonyl]-amino}-cyclohexanecarboxylic acid tert-butyl ester]"
5,> 5 µM,"COc1cc2c(cc1C=C(C)C)-c1c(c(C(=O)N3CCC(C(=O)O)CC3)nn1-c1ccsc1)CO2 [Compound 16, 1-{7-Methoxy-8-(2-methyl-propenyl)-1-thiophen-3-yl-1,4-dihydro-chromeno[4,3-c]pyrazole-3-carbonyl]-piperidine-4-carboxylic acid]"
6,1 to 5 µM,"CNC(=O)c1nn(-c2ccsc2)c2c1COc1cc(OC)c(-c3cn[nH]c3)cc1-2 [Compound 22, 7-Methoxy-8-(1H-pyrazol-4-yl)-1-thiophen-3-yl-1,4-dihydro-chromeno[4,3-c]pyrazole-3-carboxylic Acid Methylamide]"
7,> 5 µM,"COc1cc2c(cc1OC(C)C)-c1c(c(C(=O)N3CCCC(C(=O)O)CC3)nn1-c1ccsc1)CO2 (centres unmarked) [Compound 25, 1-(8-Isopropoxy-7-methoxy-1-thiophen-3-yl-1,4-dihydro-chromeno[4,3-c]pyrazole-3-carbonyl)-azepane-4-carboxylic acid]"
8,> 5 µM,"COc1cc2c(cc1OC(C)C)-c1c(c(C(=O)NCCCN)nn1-c1ccsc1)CO2 [Compound 27, 8-Isopropoxy-7-methoxy-1-thiophen-3-yl-1,4-dihydro-chromeno[4,3-c]pyrazole-3-carboxylic acid (3-amino-propyl)-amide]"
9,< 0.1 µM,COc1cc2c(cc1OC(C)C)-c1c(c(C(=O)N(C)CCN(C)C(=O)C3CCC3)nn1-c1ccsc1)CO2 [Compound 29]
10,0.1 to 1 µM,COc1cc2c(cc1OC(C)C)-c1c(c(C(=O)N(C)CCCN(C)C(=O)C3CCC3)nn1-c1ccsc1)CO2 [Compound 30]
11,0.1 to 1 µM,COc1cc2c(cc1C=C(C)C)-c1c(c(C(=O)N(C)CCCN(C)C(C)=O)nn1-c1ccsc1)CO2 [Compound 32]
12,0.1 to 1 µM,COc1cc2c(cc1C=C(C)C)-c1c(c(C(=O)N(C)CCCN3CCOC3=O)nn1-c1ccsc1)CO2 [Compound 33]
13,< 0.1 µM,COc1cc2c(cc1C=C(C)C)-c1c(c(C(=O)N(C)CCN(C)C(C)=O)nn1-c1ccsc1)CO2 [Compound 34]
14,1 to 5 µM,"COc1cc2c(cc1C=C(C)C)-c1c(c(C(=O)N3CCCC(NC(=O)OC(C)(C)C)CC3)nn1-c1ccsc1)CO2 (centres unmarked) [Compound 35, {1-[7-Methoxy-8-(2-methyl-propenyl)-1-thiophen-3-yl-1,4-dihydro-chromeno[4,3-c]pyrazole-3-carbonyl]-azepan-4-yl}-carbamic acid tert-butyl ester]"
15,0.1 to 1 µM,"COc1cc2c(cc1C=C(C)C)-c1c(c(C(=O)N3CCCC(N)CC3)nn1-c1ccsc1)CO2 (centres unmarked) [Compound 36, (4-Amino-azepan-1-yl)-[7-methoxy-8-(2-methyl-propenyl)-1-thiophen-3-yl-1,4-dihydro-chromeno[4,3-c]pyrazol-3-yl]-methanone]"
16,1 to 5 µM,"COc1cc2c(cc1C=C(C)C)-c1c(c(C(=O)N3CCCC(NC(=O)C4CCC4)CC3)nn1-c1ccsc1)CO2 (centres unmarked) [Compound 37, Cyclobutanecarboxylic acid {1-[7-methoxy-8-(2-methyl-propenyl)-1-thiophen-3-yl-1,4-dihydro-chromeno[4,3-c]pyrazole-3-carbonyl]-azepan-4-yl}-amide]"
17,1 to 5 µM,"COc1cc2c(cc1C(O)C(C)(C)O)-c1c(c(C(=O)N(C)C(C)(C)C)nn1-c1ccsc1)CO2 (centres unmarked) [Compound 38, 8-(1,2-Dihydroxy-2-methyl-propyl)-7-methoxy-1-thiophen-3-yl-1,4-dihydro-chromeno[4,3-c]pyrazole-3-carboxylic Acid tert-butyl-methyl-amide]"
18,< 0.1 µM,"COc1cc2c(cc1C=C(C)C)-c1c(c(C(=O)N3CCOCC3(C)C)nn1-c1ccsc1)CO2 [Compound 39, (3,3-Dimethyl-morpholin-4-yl)-[7-methoxy-8-(2-methyl-propenyl)-1-thiophen-3-yl-1,4-dihydro-chromeno[4,3-c]pyrazol-3-yl]-methanone]"
19,< 0.1 µM,"COc1cc2c(cc1C=C(C)C)-c1c(c(C(=O)N(C)C(C)(C)CO)nn1-c1ccsc1)CO2 [Compound 40, 7-Methoxy-8-(2-methyl-propenyl)-1-thiophen-3-yl-1,4-dihydro-chromeno[4,3-c]pyrazole-3-carboxylic acid (2-hydroxy-1,1-dimethyl-ethyl)-methyl-amide]"
20,0.1 to 1 µM,"COc1cc2c(cc1C=C(C)C)-c1c(c(C(=O)N3CCCC(C(=O)N(C)C)CC3)nn1-c1ccsc1)CO2 (centres unmarked) [Compound 41, 1-[7-Methoxy-8-(2-methyl-propenyl)-1-thiophen-3-yl-1,4-dihydro-chromeno[4,3-c]pyrazole-3-carbonyl]-azepane-4-carboxylic Acid Dimethylamide]"
21,0.1 to 1 µM,"CNC(=O)C1CCCN(C(=O)c2nn(-c3ccsc3)c3c2COc2cc(OC)c(C=C(C)C)cc2-3)CC1 (centres unmarked) [Compound 42, 1-[7-Methoxy-8-(2-methyl-propenyl)-1-thiophen-3-yl-1,4-dihydro-chromeno[4,3-c]pyrazole-3-carbonyl]-azepane-4-carboxylic Acid Methylamide]"
22,< 0.1 µM,"COc1cc2c(cc1C=C(C)C)-c1c(c(C(=O)N3CCCC(C(N)=O)CC3)nn1-c1ccsc1)CO2 (centres unmarked) [Compound 43, 1-[7-methoxy-8-(2-methyl-propenyl)-1-thiophen-3-yl-1,4-dihydro-chromeno[4,3-c]pyrazole-3-carbonyl]-azepane-4-carboxylic Acid Amide]"
23,0.1 to 1 µM,"COc1cc2c(cc1C=C(C)C)-c1c(c(C(=O)N3CCC34COC4)nn1-c1ccsc1)CO2 [Compound 44, [7-Methoxy-8-(2-methyl-propenyl)-1-thiophen-3-yl-1,4-dihydro-chromeno[4,3-c]pyrazol-3-yl]-(6-oxa-1-aza-spiro[3.3]hept-1-yl)-methanone]"
24,0.1 to 1 µM,"COc1cc2c(cc1C=C(C)C)-c1c(c(C(=O)N3CCC[C@@H](C(=O)N4CCC4)CC3)nn1-c1ccsc1)CO2 [Compound 45, [(R)-4-(Azetidine-1-carbonyl)-azepan-1-yl]-[7-methoxy-8-(2-methyl-propenyl)-1-thiophen-3-yl-1,4-dihydro-chromeno[4,3-c]pyrazol-3-yl]-methanone]"
25,1 to 5 µM,"COc1cc2c(cc1C=C(C)C)-c1c(c(C(=O)N3CCC[C@H](C(=O)N4CCC4)CC3)nn1-c1ccsc1)CO2 [Compound 46, [(S)-4-(Azetidine-1-carbonyl)-azepan-1-yl]-[7-methoxy-8-(2-methyl-propenyl)-1-thiophen-3-yl-1,4-dihydro-chromeno[4,3-c]pyrazol-3-yl]-methanone]"
